Assay results from ChEMBL document CHEMBL4118272, “The inhibitory effect of kokusaginine on the growth of human breast cancer cells and MDR-resistant cells is mediated by the inhibition of tubulin assembly” (Bioorg Med Chem Lett, 2018).
Active and inactive are the calls of the source. No cut-off for these calls is given here.

Legend:
Homo sapiens [1] = species: Homo sapiens; details: 10 uM
Description: Inhibition of P-gp in human MCF7/ADR cells assessed as increase in intracellular Rh123 accumulation at 10 uM after 2 hrs by flow cytometry

[2] = Growth inhibition of human MDA-MB-231/ADR cells after 48 hrs by MTT assay; type: functional; details: MDA-MB-231, 48 h
[3] = Resistance factor, ratio of IC50 for human MCF7/ADR cells to IC50 for human MCF7 cells; type: functional
MCF7 [4] = assay: Growth inhibition of human MCF7 cells after 48 hrs by MTT assay; type: functional, cell-based; details: MCF7, 48 h
[5] = Resistance factor, ratio of IC50 for human MDA-MB-231/ADR cells to IC50 for human MDA-MB-231 cells; type: functional
NCI/ADR-RES [6] = assay: Growth inhibition of human MCF7/ADR cells after 48 hrs by MTT assay; type: functional, cell-based
Sus scrofa [7] = species: Sus scrofa; assay: Inhibition of porcine MAP-rich tubulin polymerization at 20 uM measured every 30 secs for 30 mins
Tubulin (Homo sapiens) [8] = molecular target: T1, Tubulin (Homo sapiens) (UniProt P68371+Q9H4B7+P0DPH7+P68366+Q13509+Q71U36+P04350+Q3ZCM7+P07437+P68363+Q9BQE3+Q6PEY2+Q13885+Q9BVA1+Q9BUF5); assay: Displacement of [3H]colchicine from tubulin (unknown origin) at 1 uM after 10 mins relative to control; type: protein-complex assay
MCF7 [9] = assay: Induction of apoptosis in human MCF7 cells at 6 uM after 24 hrs by Annexin V-FITC/PI double staining based flow cytometry relative to control; type: functional
Homo sapiens [10] = species: Homo sapiens; assay: Inhibition of P-gp in human MCF7/ADR cells assessed as increase in intracellular Rh123 accumulation at 24 uM after 2 hrs by flow cytometry; type: cell-based
NCI/ADR-RES [11] = assay: Induction of apoptosis in human MCF7/ADR cells at 24 uM after 24 hrs by Annexin V-FITC/PI double staining based flow cytometry relative to control; type: functional
NCI/ADR-RES [12] = assay: Downregulation of P-gp expression level in human MCF7/ADR cells assessed as P-gp mRNA level up to 24 uM by qRT-PCR analysis (reference value: 17.5); type: functional
MCF7 [13] = assay: Downregulation of P-gp protein expression level in human MCF7 cells assessed as P-gp protein level up to 24 uM by Western blot analysis; type: functional
Tubulin (Homo sapiens) [14] = molecular target: T1, Tubulin (Homo sapiens); assay: Displacement of [3H]colchicine from tubulin (unknown origin) at 5 uM after 10 mins relative to control; type: protein-complex assay
NCI/ADR-RES [15] = assay: Induction of apoptosis in human MCF7/ADR cells at 12 uM after 24 hrs by Annexin V-FITC/PI double staining based flow cytometry relative to control; type: functional
Tubulin = assay: Inhibition of tubulin (unknown origin) polymerization preincubated for 15 mins followed by GTP addition measured for 20 mins by turbidimetric analysis; type: protein-complex assay, Homo sapiens
MCF7 [16] = assay: Induction of apoptosis in human MCF7 cells at 24 uM after 24 hrs by Annexin V-FITC/PI double staining based flow cytometry relative to control; type: functional
MDA-MB-231 = assay: Growth inhibition of human MDA-MB-231 cells after 48 hrs by MTT assay; type: functional, cell-based; details: MDA-MB-231, 48 h
MCF7 [17] = assay: Induction of apoptosis in human MCF7 cells at 12 uM after 24 hrs by Annexin V-FITC/PI double staining based flow cytometry relative to control; type: functional
NCI/ADR-RES [18] = assay: Induction of apoptosis in human MCF7/ADR cells at 6 uM after 24 hrs by Annexin V-FITC/PI double staining based flow cytometry relative to control; type: functional
NCI/ADR-RES [19] = assay: Downregulation of P-gp protein expression level in human MCF7/ADR cells assessed as P-gp protein level up to 24 uM by Western blot analysis (reference value: 0.67); type: functional
Sus scrofa [20] = species: Sus scrofa; assay: Inhibition of porcine MAP-rich tubulin polymerization measured every 30 secs for 30 mins
NCI/ADR-RES [21] = assay: Downregulation of P-gp mRNA level in human MCF7/ADR cells by qRT-PCR analysis; type: functional, cell-based

With COc1ccc(CCN(C)CCCC(C#N)(c2ccc(OC)c(OC)c2)C(C)C)cc1OC (stereo not drawn) the inhibition (Homo sapiens [1]) was “Active”.

In the case of COc1cccc2c1C(=O)c1c(O)c3c(c(O)c1C2=O)C[C@@](O)(C(=O)CO)C[C@@H]3O[C@H]1C[C@H](N)[C@H](O)[C@H](C)O1.Cl [DOXORUBICIN HYDROCHLORIDE], the IC50 [2] is reported as 49.8 µM, the “Ratio IC50” value [3] is reported as 29.5 and the IC50 (MCF7 [4]) is reported as 1.72 µM. The “Ratio IC50” value [5] was 22.72 and the IC50 (NCI/ADR-RES [6]) was 50.7 µM.

For COc1cc2c(c(OC)c1OC)-c1ccc(OC)c(=O)cc1[C@@H](NC(C)=O)CC2, the inhibition (Sus scrofa [7]) was “Active”.

In the case of COc1cc2nc3occc3c(OC)c2cc1OC [KOKUSAGININE], the inhibition (Tubulin (Homo sapiens) [8]) is reported as 92%, the Activity (MCF7 [9]) is reported as 12.08% and the IC50 [2] is reported as 10.2 µM. For the same molecule, the inhibition (Homo sapiens [10]) was “Active”, the Activity (NCI/ADR-RES [11]) was 63.29% and the Activity (NCI/ADR-RES [12]) was 6.4. For the same molecule, the Activity (MCF7 [13]) was 0.02 - 0.09, the “Ratio IC50” value [3] was 0.64 and the inhibition (Tubulin (Homo sapiens) [14]) was 98%. The IC50 (MCF7 [4]) was 7.23 µM, the Activity (NCI/ADR-RES [15]) was 45.35% and the IC50 (Tubulin) was 0.82 µM. For the same molecule, the Activity (MCF7 [16]) was 39.52%, the IC50 (MDA-MB-231) was 9.01 µM and the Activity (MCF7 [17]) was 21.63%. For the same molecule, the “Ratio IC50” value [5] was 1.13, the Activity (NCI/ADR-RES [18]) was 28.16% and the Activity (NCI/ADR-RES [19]) was 0.19. The IC50 (NCI/ADR-RES [6]) was 4.62 µM, the inhibition (Sus scrofa [20]) was “Dose-dependent effect” and the Activity (NCI/ADR-RES [21]) was “Dose-dependent effect”.
